# Laboratory results from patent US9034918B2, “Composition including at least one trans-cinnamaldehyde and the use thereof in the treatment of bacterial infections, specifically in the treatment of nosocomial infections” (SEPTEOS, priority 2009, dated 2015).
# How the values were obtained:
# Experiment in all cases: Antibiogram by diffusion technique (CA-SFM 2008)
# Format in all cases: cell-based
# [1] = tested on: Enterobacter aerogenes (9004); conditions: strain 9004
# Text: (§1) Three clinical categories were selected for interpretation of the in vitro sensitivity tests: sensitive (S), resistant (R) and intermediate (I). • The strains categorized S are those for which the probability of therapeutic success is high in the case of treatment by systemic route with the dosing schedule recommended in the summary of product characteristics (SPC) prepared by the French Health Products Safety Agency (AFSSAPS). • The strains categorized R are those for which there is a high probability of therapeutic failure regardless of treatment type and antibiotic dose. • The strains categorized I are those for which therapeutic success cannot be predicted. These strains form a heterogeneous group for which the results obtained in vitro are not predictive of therapeutic success. […] The intermediate category is also a buffer zone which takes into account technical and biological uncertainties.
# (§2) The sensitivity of strains to antibiotics was determined by a diffusion technique according to the 2008 recommendations by the Antibiogram Committee of the French Microbiology Society (CA-SFM).
# (§3) In terms of critical concentrations and diameters, strains are categorized as follows: • sensitive (S): strains for which the MIC of the antibiotic tested is less than or equal to the lower critical concentration c, which is equivalent to a diameter greater than or equal to the critical diameter D; • resistant (R): strains for which the MIC of the antibiotic tested are greater than the upper critical concentration C, corresponding to a diameter less than the critical diameter d; • intermediate sensitivity (I): strains for which the MIC of the antibiotic tested and the corresponding diameter are between the two critical concentrations and the two critical diameters.
# (§4) The tests were carried out on Mueller-Hinton agar. An inoculum adjusted to 0.5 on the McFarland scale is then diluted to 1/100. Petri dishes are inoculated by swabbing. The dishes are read after 24 hours of incubation at 37° C.
# (§5) The raw results are then interpreted according to the interpretative reading rules of the CA-SFM.
# [2] = tested on: E. coli strain 9003
# Text: as §1, §2, §3, §4, §5
# [3] = tested on: strain 9010, Acinetobacter baumannii, with VEB-1 ESBL
# Text: as §1, §2, §3, §4, §5
# [4] = tested on: strain 9007, Pseudomonas aeruginosa, with VIM-2 carbapenemase
# Text: as §1, §2, §3, §4, §5
# [5] = tested on: Pseudomonas aeruginosa strain 8132; set-up: D: unit not given here
# Text: as §1, §2, §3, §4, §5
# [6] = tested on: Pseudomonas aeruginosa strain 8128; set-up: D: unit not given here
# Text: as §1, §2, §3, §4, §5
# [7] = tested on: golden staph (S. aureus) strain 8147; set-up: D: unit not given here
# Text: as §1, §2, §3, §4, §5
# [8] = tested on: E. coli strain 8156; set-up: D: unit not given here
# Text: as §1, §2, §3, §4, §5
# [9] = tested on: golden staph (S. aureus) strain 8240; set-up: D: unit not given here
# Text: as §1, §2, §3, §4, §5
# [10] = tested on: E. coli strain 8157; set-up: D: unit not given here
# Text: as §1, §2, §3, §4, §5
# [11] = tested on: golden staph (S. aureus) strain 8239; set-up: D: unit not given here
# Text: as §1, §2, §3, §4, §5
# [12] = tested on: Pseudomonas aeruginosa strain 8129; set-up: D: unit not given here
# Text: as §1, §2, §3, §4, §5
# [13] = tested on: E. coli strain 8154; set-up: D: unit not given here
# Text: as §1, §2, §3, §4, §5
# [14] = tested on: E. coli strain 8155; set-up: D: unit not given here
# Text: as §1, §2, §3, §4, §5
# [15] = tested on: Pseudomonas aeruginosa strain 8134; set-up: D: unit not given here
# Text: as §1, §2, §3, §4, §5
# [16] = tested on: E. coli ATCC 25922; set-up: Diameter (D): unit not given here
# Text: Three clinical categories were selected for interpretation of the in vitro sensitivity tests: sensitive (S), resistant (R) and intermediate (I). • The strains categorized S are those for which the probability of therapeutic success is high in the case of treatment by systemic route with the dosing schedule recommended in the summary of product characteristics (SPC) prepared by the French Health Products Safety Agency ([…]). • The strains categorized R are those for which there is a high probability of therapeutic failure regardless of treatment type and antibiotic dose. • The strains categorized I are those for which therapeutic success cannot be predicted. These strains form a heterogeneous group for which the results obtained in vitro are not predictive of therapeutic success. […] The intermediate category is also a buffer zone which takes into account technical and biological uncertainties. The sensitivity of strains to antibiotics was determined by a diffusion technique according to the 2008 recommendations by the Antibiogram Committee of the French Microbiology Society (CA-SFM). In terms of critical concentrations and diameters, strains are categorized as follows: • sensitive (S): strains for which the MIC of the antibiotic tested is less than or equal to the lower critical concentration c, which is equivalent to a diameter greater than or equal to the critical diameter D; • resistant (R): strains for which the MIC of the antibiotic tested are greater than the upper critical concentration C, corresponding to a diameter less than the critical diameter d; • intermediate sensitivity (I): strains for which the MIC of the antibiotic tested and the corresponding diameter are between the two critical concentrations and the two critical diameters. The tests were carried out on Mueller-Hinton agar. An inoculum adjusted to 0.5 on the McFarland scale is then diluted to 1/100. Petri dishes are inoculated by swabbing. The dishes are read after 24 hours of incubation at 37° C. The raw results are then interpreted according to the interpretative reading rules of the CA-SFM. Two examples: all strains of methicillin-resistant Staphylococcus are resistant to all beta-lactams, and the same is true for gentamicin-resistant strains; golden staph is necessarily resistant to kanamycin (and amikacin) and tobramycin. The quality of the diffusion method is controlled using E. coli strain ATCC 25922.
# [17] = tested on: Enterococcus strain 8153; set-up: Diameter: unit not given here
# Text: as §1, §2, §3, §4, §5
# [18] = tested on: Enterococcus strain 8152; set-up: Diameter: unit not given here
# Text: as §1, §2, §3, §4, §5
Molecule,Category [1],Category [2],Category [3],Category [4],Cat. [5],D [5],Cat. [6],D [6],Cat. [8],D [8],Cat. [10],D [10],Cat. [12],D [12],Cat. [13],D [13],Cat. [14],Cat. [15],Category (Cat.) [16],Diameter (D) [16],also measured
NCC[C@H](O)C(=O)N[C@@H]1C[C@H](N)[C@@H](O[C@H]2O[C@H](CN)[C@@H](O)[C@H](O)[C@H]2O)[C@H](O)[C@H]1O[C@H]1O[C@H](CO)[C@@H](O)[C@H](N)[C@H]1O [Amikacin],I,S,–,–,–,–,–,–,–,–,–,–,–,–,–,–,–,–,–,–,–
CC(=O)OCC1=C(C(=O)O)N2C(=O)[C@@H](NC(=O)Cc3cccs3)[C@H]2SC1 [Cefalotin],R,R,R,R,R,0,R,0,S,20,S,19,R,0,S,21,S,R,S,20,Cat. [7]: R; D [7]: 17; Cat. [9]: R; D [9]: 17; Cat. [11]: R; D [11]: 17; D [14]: 21; D [15]: 0
CO/N=C(\C(=O)N[C@@H]1C(=O)N2C(C(=O)[O-])=C(C[N+]3(C)CCCC3)CS[C@H]12)c1csc(N)n1 [Cefepime],R,R,R,S,S,–,S,–,S,–,S,–,S,–,S,–,S,S,S,25,–
CO/N=C(\C(=O)N[C@@H]1C(=O)N2C(C(=O)O)=C(COC(C)=O)CS[C@H]12)c1csc(N)n1 [Cefotaxime],R,R,–,–,–,–,–,–,–,–,–,–,–,–,–,–,–,–,–,–,–
CO[C@@]1(NC(=O)Cc2cccs2)C(=O)N2C(C(=O)O)=C(COC(N)=O)CS[C@@H]21 [Cefoxitin],–,–,R,R,R,0,R,0,S,26,S,30,R,0,S,26,S,R,S,24,Category [17]: S; Diameter [17]: 25; Category [18]: R; Diameter [18]: 0; D [14]: 25; D [15]: 0
CC(C)(O/N=C(\C(=O)N[C@@H]1C(=O)N2C(C(=O)[O-])=C(C[n+]3ccccc3)CS[C@H]12)c1csc(N)n1)C(=O)O [Ceftazidime],R,R,R,S,S,26,S,25,S,33,S,30,R,0,S,30,S,S,S,25,D [14]: 30; D [15]: 25
C[C@@H](O)[C@H]1C(=O)N2C(C(=O)O)=C(S[C@@H]3CN[C@H](C(=O)Nc4cccc(C(=O)O)c4)C3)[C@H](C)[C@H]12 [Eratpenem],S,S,–,–,–,–,–,–,–,–,–,–,–,–,–,–,–,–,–,–,–
C[C@@H](O)[C@H]1C(=O)N2C(C(=O)O)=C(SCCN=CN)C[C@H]12 [Imipenem],S,S,S,R,R,13,I,18,S,34,I,20,S,36,S,33,S,S,S,34,D [14]: 34; D [15]: 26
CCn1cc(C(=O)O)c(=O)c2ccc(C)nc21 [Nalidixic acid],–,–,R,R,R,0,R,0,S,27,R,0,R,0,S,24,S,R,S,28,D [14]: 28; D [15]: 0
CCn1cc(C(=O)O)c(=O)c2cc(F)c(N3CCNCC3)cc21 [Noroxin],R,R,–,–,–,–,–,–,–,–,–,–,–,–,–,–,–,–,–,–,–
CC1(C)S[C@@H]2[C@H](NC(=O)[C@H](C(=O)O)c3ccsc3)C(=O)N2[C@H]1C(=O)O [Ticarcillin],R,R,R,R,R,12,I,21,S,28,R,0,R,13,R,0,S,S,S,25,D [14]: 31; D [15]: 23
Bactrim,R,S,–,–,–,–,–,–,–,–,–,–,–,–,–,–,–,–,–,–,–
Colimycin,S,S,–,–,–,–,–,–,–,–,–,–,–,–,–,–,–,–,–,–,–
Pristinamycin,–,–,–,–,–,–,–,–,–,–,–,–,–,–,–,–,–,–,–,–,Category [17]: S; Diameter [17]: 22; Category [18]: S; Diameter [18]: 23; Cat. [7]: S; D [7]: 29; Cat. [9]: S; D [9]: 27; Cat. [11]: S; D [11]: 32
